Assay results from patent US20060229255A1, “Identification of n-alkylglycine trimers for induction of apoptosis” (priority 2003, published 2006).

Experiments:
Type in all cases: cell-based, human
Bcl-xL = assay: Western blot of Bcl-xL phosphorylation; conditions: HT29 cells, 3, 6 and 24 h
Experimental: (§1) Western blotting. Floating and adherent cells were harvested and pellets were resuspended in RIPA buffer (50 mM Tris/HCl 7.4, 250 mM NaCl, 0,5% Igepal CA630, 5 mM EDTA, 1 mM PMSF, 10 μg/ml leupeptin, 50 mM NaF, 0.1 mM Na3VO4) or Deoxycholate buffer (10 mM phosphate buffer 7.4, […] NaCl, 0.5% Deoxycholate, 1% Igepal, 0.1% SDS, 1 mM PMSF). Protein concentration was determined with BCA Protein Assay Kit (Pierce) for RIPA extracts or Bradford assay (BioRad) for Deoxycholate extracts. Total protein (20-30 μg/lane) were separated by SDS-PAGE, transferred to PVDF membranes (Gellman), and probed with antibodies against Bcl-xL (Transduction); Bax (Santa Cruz); JNK (Santa Cruz); phospho-JNK (Cell Signaling); pRb (Pharmingen); pRb-phospho Ser780 (Cell Signalling); p130 (Santa Cruz); p107 (Santa Cruz); Cdk2 (Santa Cruz); p27^Kip1 (Santa Cruz); p21^Cip1 (Santa Cruz); actin (Sigma); or tubulin (ICN) and developed with ECL system (AmershamPharmacia biotech)
(§2) FIG. 6. (A) JNK is activated after N13-13-10C treatment. HT29 cells were treated for 1, 3, 6 and 24 h with N13-13-10C (35 μM), harvested and immunoblotted to assess activation of SAP/JNK MAP kinase. Western blot was first probed with the JNK-phosphor specific antibody, was stripped and reprobed with the pan-JNK antibody and actin to normalize total protein level. […]

Bax = assay: Western blot of Bax; conditions: HT29 cells
Experimental: as §1, §2

T98 g cells = assay: Cell cycle DNA analysis in synchronized cells; conditions: 19 h after serum re-addition, 100 μM
Experimental: Experimentally this finding was substantiated analysing the compounds in a cellular model with synchronized cells. T98 g cells were arrested in G1 phase (82%) by serum starvation in MCDB 105 medium after 72 h. Upon 10% serum re-addition, cells were allowed to re-enter into the cell cycle. More than 50% of the cells were in the S-phase, and only 20% remained in G1 after 19 h of FCS introduction. Addition of N10-13-10C or N13-13-10C to the cultures at the moment of serum addition restrained S-phase entry (FIG. 7. A). Around 40% of the cells were retained in G1. In conclusions both N10-13-10C and N13-13-10C were able to induce a G1 arrest either in asynchronous or in synchronized cell cultures, as determined by cell cycle DNA analysis. In comparison, Olomucine which is a cdk2 inhibitor, retained 80% of the cells in G1. The topoisomerase II inhibitor etoposide treated cells were arrested in S phase of the cell cycle (85% of the cell population).
DNA analysis. Floating and adherent cells treated with the compounds were collected by trypsinization and washed twice with PBS. The cells were permeabilized overnight at −20° C. with ice-cold ethanol 70%. The cells were washed in PBS, adjusted at 0.5×10^6 cells/ml and incubated with 20 μg/ml Propidium Iodide and 2 μl/ml RNase DNase-free for 30 min at 30° C. Cells were maintained overnight at 4° C. and then analysed by flow cytometry. Flow cytometric experiments were carried out using an Epics XL flow cytometer (Coulter Corporation, Hialeah, Fla.). The instrumet was set up with the standard configuration: excitation of the sample was done using an standard 488 nm air-cooled argon-ion laser at 15 mW power. Forward scatter (FSC), side scatter (SSC) and red (620 nm) fluorescence for PI were adquired. Optical alignement was based on optimized signal from […] fluorescent beads (Immunocheck, Epics Division). Time was used as a control of the stability of the instrument. Red fluorescence was projected on a 1024 monoparametrical histogram. Aggregates were excluded gating single cells by their area vs. peak fluorescence signal. DNA analysis (Ploidy analysis) on single fluorescence histograms was done using Multicycle software (Phoenix Flow Systems, San Diego, Calif.).
FIG. 7. […] (A) T98 g cells were synchronized and reinitiated for 19 h with FCS alone or in combination with N10-13-10C (100 μM), N13-13-10C (100 μM), Olomucine (100 μM), etoposide (5 μM) or Taxol (30 nM). Cell cycle profile was assessed by propidium iodide DNA staining and analyzed by flow cytometry. The fraction of cells with G1, S, G2/M DNA content are shown as % of total cell population. (B. and C.) Synchronized T98 g cells were reinitiated with FCS alone or in combination with serial dilutions of N4-13-10C, N5-13-10C, N10-13-10C, N13-13-10C, Olomucine or etoposide for 19 h and labeled with BrdU during the last 2 h. BrdU incorporation was assessed by ELISA using anti-BrdU antibodies. An arbitrary value of 100% was assigned to the densiometric rate of DNA synthesis by untreated cultures and all other values are depicted relative to that reference. The values are means of three (n=3) replicates.

[1] = tested on: pRb, p130, p107, p27kip1, p21Cip1; assay: Western blot of G1 checkpoint proteins in synchronized T98 g cells
Experimental: as §1
FIG. 8. Expression of protein involved in G0/G1 checkpoint. (A.) HT29 cells were treated for 1, 3, 6 and 24 h with N10-13-10C (40 μM) or N13-13-10C (35 µM), harvested and immunoblotted to assess total pRb levels or Cdk4 specific phosphorylation at pRb-Ser^780 (PpRb). Western blot was first probed with the pRb-Ser^780 phosphorylation specific antibody, was stripped and reprobed with the pan-pRb antibody and tubulin to normalize total protein level. (B.) T98 g cells were synchronized by serum starvation and reinitiated with 10% FCS and DMSO (C), N13-13-10C (100 μM) or Taxol (30 nM) for 15, 17, 24 or 29 h. Western blot of total protein extracts was probed with antibodies to p130, pRb, p107, Cdk2, cycA, p27, p21 and actin. Unphosphorylated, hypophosphorylated as well as hyperphosphorylated pRb are detected (arrows). (C.) HT29 cells treated for 24 and 48 h with N13-13-10C (40 μM) or DMSO as control. Immunoblots were stained with antibodies to Cdk2, cycA, p21, p27 and actin.

SMILES	Bcl-xL phosphorylation (slower migrating band) (Bcl-xL)	Bax level (Bax)	Cells retained in G1 (T98 g cells)	Time of p21Cip1 peak levels ([1]; T98 g, 100 μM) [h]	p27kip1 level ([1]; T98 g, after 15 h of treatment)	Total pRb levels ([1]; synchronized T98 g, 100 μM)	p107 levels ([1]; synchronized T98 g, 100 μM)	p130 phosphorylation ([1]; synchronized T98 g, 100 μM)	p130 total levels ([1]; synchronized T98 g, 100 μM)	pRb hyperphosphorylation ([1]; synchronized T98 g, 100 μM)
COc1ccc(CCN(CC(=O)N(CCc2ccccc2)CC(N)=O)C(=O)CNCCc2ccccc2)cc1 [N10-13-10C]	not observed	not increased	Around 40%	–	–	–	–	–	–	–
COc1ccc(CCNCC(=O)N(CCc2ccc(OC)cc2)CC(=O)N(CCc2ccccc2)CC(N)=O)cc1 [N13-13-10C]	–	–	Around 40%	17	appreciable induction	decreased total pRb levels	down regulated	remains also hypophosphorylated	total levels are increased	prevented pRb hyperphosphorylation
